Patent US20250186521A1 (priority 2018, published 2025)

How the values were obtained:
Assay type in all cases: in vivo, Broiler chickens
[1] = test system: mixed E. acervulina, E. maxima, and E. tenella coccidial inoculum; experiment: Anticoccidial efficacy versus salinomycin (Example 5): performance, average lesion score, total OPG; details: 60 g/t
From the text: (§1) • 1. No Additive, no Cocci. • 2. No Additive, Cocci. • 3. Salinomycin 60 g/t, Cocci. • 4. Product Z 0.551%, Cocci.
(§2) Cages were blocked by location in the battery with block size equal to the groups (8 cages per block). The study began when the birds were placed (day of hatch, i.e., DOT 0) at which time they were allocated to the experimental cages. Only healthy birds were selected (10 birds/cage).
(§3) Upon arrival, chicks were raised in Petersime battery cages. At placement the birds were fed the various feeds. The Petersime batteries were in an insulated building having a concrete floor and a metal overhead structure. The floor space per animal was 0.51 sq. ft. per bird. The feeder space per bird was 10 birds per 24×3.5-inch feeder. Uniform temperature and illumination was provided.
(§4) An unmedicated commercial chicken feed composition compounded with feedstuffs commonly used in the U.S. poultry industry, such as cereals and proteins, was obtained. The diet was an all-vegetable feed with no antibiotics, organic acids, NSP enzymes, or direct fed microbial. This feed in mash form was fed ad libitum from the date of chick arrival until Day 28 of the study. Experimental feeds augmented with the algal biomass were prepared from this commercial poultry feed. The feeds were mixed to assure a uniform distribution of algal biomass into the mash feed.
Day of hatch male broiler chicks of strain Cobb X Cobb were obtained from Cobb-Vantress, Cleveland, GA. Sets of ten chicks were randomly selected, group weighed and placed into cages. No birds were replaced during the study.
(§5) All birds were weighed by cage on DOT 0, 14, 20 and 28. Feed was weighed in on DOT 0 and remaining feed was weighed on DOT 14, 20, and 28.
Coccidial oocysts inoculation procedures were described. On Day 14 of the study all birds except Tl orally received a mixed E. acervulina, E. maxima, and E. tenella coccidial inoculum diluted to a 1 ml volume (p.o.). Inoculum level attempted to produce a moderate challenge.
(§6) On DOT 20, five birds from each cage were selected, sacrificed, weighed, and examined for the degree of presence of coccidia lesions. If less than five birds were present at time of scoring, all remaining birds within the cage were scored. The Johnson and Reid, 1970 method of coccidiosis lesion scoring was used to score the infected region(s) of the intestine. The scoring was based on a 0 to 4 score, with 0 being normal and 4 being the most severe.
(§7) Day 19 (Day 5 post challenge) drop pans from all cages were cleaned. Day 20 (Day 6 pc) mixed feces were collected from each cage. Each sample was examined for the number of oocysts per gram fecal material by fecal floatation.
(§8) Means for cage weight gain, feed consumption, feed conversion rate, lesion scores, opgs, and mortality were calculated.

[2] = test system: Eimeria acervulina; experiment: Anticoccidial efficacy (Example 5): lesion score and OPG, Eimeria acervulina; details: 60 g/t, infected
From the text: as §1, §2
as §4, with “mash feed. […]” for “mash feed.”
(§9) On DOT 20, five birds from each cage were selected, sacrificed, weighed, and examined for the degree of presence of coccidia lesions. If less than five birds were present at time of scoring, all remaining birds within the cage were scored. […]
as §8

[3] = test system: Eimeria maxima; experiment: Anticoccidial efficacy (Example 5): lesion score and OPG, Eimeria maxima; details: 60 g/t, infected
From the text: as §1, §2
as §4, with “mash feed. […]” for “mash feed.”
as §9, §8

[4] = test system: Eimeria tenella; experiment: Anticoccidial efficacy (Example 5): lesion score and OPG, Eimeria tenella; details: 60 g/t, infected
From the text: as §1, §2
as §4, with “mash feed. […]” for “mash feed.”
as §9, §8

[5] = test system: mixed E. acervulina, E. maxima, and E. tenella coccidial inoculum; experiment: Cocci Test (Example 6): performance, average lesion score, total OPG; details: 1.0 lb/t
From the text: (§10) • 1. No Additive, no Cocci • 2. No Additive, Cocci • 3. Salinomycin 60 g/t, Cocci • 4.
(§11) Each group was replicated 10 times. Cages were blocked by location in the battery with block size equal to groups (7 cages per block). The study began when the birds were placed (day of hatch, i.e., DOT 0) at which time they were allocated to the experimental cages. Only healthy birds were selected (10 birds/cage).
as §3, with “ft” for “ft.”
as §4
Day of hatch male broiler chicks of strain Cobb 500 were obtained from Cobb-Vantress, Cleveland, GA. Sets of ten chicks were randomly selected, group weighed and placed into cages. Number and disposition of all birds not used for allocation were documented. No birds were replaced during the study.
as §5
On Day 14 of the study all birds except Tl orally received a mixed E. acervulina, E. maxima, and E. tenella coccidial inoculum diluted to a 1 ml volume (p.o.). Inoculum level attempted to produce a moderate challenge.
as §6, §7, §8

[6] = test system: Eimeria acervulina; experiment: Cocci Test (Example 6): lesion score and OPG, Eimeria acervulina; details: 1.0 lb/t, infected
From the text: as §10, §11
as §4, with “mash feed. […]” for “mash feed.”
as §9, §8

[7] = test system: Eimeria maxima; experiment: Cocci Test (Example 6): lesion score and OPG, Eimeria maxima; details: 1.0 lb/t, infected
From the text: as §10, §11
as §4, with “mash feed. […]” for “mash feed.”
as §9, §8

[8] = test system: Eimeria tenella; experiment: Cocci Test (Example 6): lesion score and OPG, Eimeria tenella; details: 1.0 lb/t, infected
From the text: as §10, §11
as §4, with “mash feed. […]” for “mash feed.”
as §9, §8

Q: For `CC[C@@H](C(=O)[C@@H](C)[C@@H](O)[C@H](C)[C@@H]1O[C@@H]([C@@H](CC)C(=O)O)CC[C@@H]1C)[C@H]1O[C@]2(C=C[C@@H](O)[C@]3(CC[C@@](C)([C@H]4CC[C@](O)(CC)[C@H](C)O4)O3)O2)[C@H](C)C[C@@H]1C` [Salinomycin], which “FCR Day 0-20” value ([1]; infected) is on record?
A: 1.597bc

Q: What about the “FCR Day 0-28” value ([1]; infected) of the same compound?
A: 1.625bc

Q: And the “FCR Day 14-20” value ([1]; infected)?
A: 1.744b

Q: And the “FCR Day 14-28” value ([1]; infected)?
A: 1.766c

Q: And the “Feed Intake Day 0-20” value ([1]; infected)?
A: 5.433a

Q: What about the “Feed Intake Day 0-28” value ([1]; infected) of the same compound?
A: 5.918a

Q: What about the “Feed Intake Day 14-20” value ([1]; infected) of the same compound?
A: 3.049a

Q: And the “Feed Intake Day 14-28” value ([1]; infected)?
A: 3.534a

Q: What about the “Wt. Gain Day 0-20” value ([1]; infected) of the same compound?
A: 0.360b

Q: What about the “Wt. Gain Day 0-28” value ([1]; infected) of the same compound?
A: 0.376b

Q: What about the “Wt. Gain Day 14-20” value ([1]; infected) of the same compound?
A: 0.185b

Q: And the “Wt. Gain Day 14-28” value ([1]; infected)?
A: 0.202b

Q: What about the “FCR Day 14” value ([1]; infected on Day 14) of the same compound?
A: 1.156a

Q: What about the “Feed Intake Day 14” value ([1]; infected on Day 14) of the same compound?
A: 2.384a

Q: And the “Wt. Gain Day 14” value ([1]; infected on Day 14)?
A: 0.218a

Q: What about the “Lesion Scores Avg.” value ([1]; infected, DOT 20, 0 to 4 score) of the same compound?
A: 1.3c

Q: And the “OPG Total Avg.” value ([1]; infected, Day 20 feces)?
A: 9722b OPG

Q: And the “Lesion Scores Eimeria acervulina” value ([2]; DOT 20, 0 to 4 score)?
A: 2.1c

Q: And the “OPG Eimeria acervulina” value ([2]; Day 20 feces)?
A: 4511c OPG

Q: And the “Lesion Scores Eimeria maxima” value ([3]; DOT 20, 0 to 4 score)?
A: 0.9c

Q: What about the “OPG Eimeria maxima” value ([3]; Day 20 feces) of the same compound?
A: 484b OPG

Q: And the “Lesion Scores Eimeria tenella” value ([4]; DOT 20, 0 to 4 score)?
A: 0.7c

Q: And the “OPG Eimeria tenella” value ([4]; Day 20 feces)?
A: 4727c OPG

Q: And the “FCR Day 0-20” value ([5]; infected)?
A: 1.876ab

Q: What about the “FCR Day 0-28” value ([5]; infected) of the same compound?
A: 1.832a

Q: What about the “FCR Day 14-20” value ([5]; infected) of the same compound?
A: 1.839b

Q: What about the “FCR Day 14-28” value ([5]; infected) of the same compound?
A: 1.789a

Q: And the “Feed Intake Day 0-20” value ([5]; infected)?
A: 7.064b

Q: What about the “Feed Intake Day 0-28” value ([5]; infected) of the same compound?
A: 9.852bc

Q: And the “Feed Intake Day 14-20” value ([5]; infected)?
A: 3.628b

Q: And the “Feed Intake Day 14-28” value ([5]; infected)?
A: 6.416b

Q: What about the “Wt. Gain Day 0-20” value ([5]; infected) of the same compound?
A: 0.382b

Q: What about the “Wt. Gain Day 0-28” value ([5]; infected) of the same compound?
A: 0.718bc

Q: And the “Wt. Gain Day 14-20” value ([5]; infected)?
A: 0.201b

Q: What about the “Wt. Gain Day 14-28” value ([5]; infected) of the same compound?
A: 0.537b

Q: What about the “FCR Day 14” value ([5]; infected on Day 14) of the same compound?
A: 1.491a

Q: And the “Feed Intake Day 14” value ([5]; infected on Day 14)?
A: 3.436ab

Q: And the “Wt. Gain Day 14” value ([5]; infected on Day 14)?
A: 0.232b

Q: And the “Lesion Scores Avg.” value ([5]; infected, DOT 20, 0 to 4 score)?
A: 1.5c

Q: What about the “OPG Total Avg.” value ([5]; infected, Day 20 feces) of the same compound?
A: 35.178c OPG

Q: What about the “Lesion Scores Eimeria acervulina” value ([6]; DOT 20, 0 to 4 score) of the same compound?
A: 1.7c

Q: And the “OPG Eimeria acervulina” value ([6]; Day 20 feces)?
A: 30802c OPG

Q: And the “Lesion Scores Eimeria maxima” value ([7]; DOT 20, 0 to 4 score)?
A: 1.7b

Q: What about the “OPG Eimeria maxima” value ([7]; Day 20 feces) of the same compound?
A: 2608a OPG

Q: And the “Lesion Scores Eimeria tenella” value ([8]; DOT 20, 0 to 4 score)?
A: 1.1b

Q: And the “OPG Eimeria tenella” value ([8]; Day 20 feces)?
A: 1768b OPG
